Results on 49 molecules are retold here after the C3SDB collision cross section collection.

The conditions of the series: instrument: DT, single field, calibrated with ESI Low Concentration Tuning Mix (Agilent).

Values joined by “and” are separate entries in the source; they are usually repeats but may differ in a detail not shown here. Identical values can stand only once.

Regarding `Nc1ccn(C2O[C@H](CO)[C@H]3OP(=O)(O)O[C@@H]23)c(=O)n1` (stereo partly drawn) [CYTIDINE 2',3'-CYCLIC PHOSPHATE], the “collision cross section (N2)” value was determined as 167.1 Å² ([M+H2O-H]-); 163.3 Å² ([M+H]+); 168 Å² ([M+K]+); 165 Å² ([M+Na-2H]-); 167.4 Å² ([M+Na]+); 164.5 Å² ([M-H]-).

With `NCCC[C@@H](N)C(=O)O` [D-ORNITHINE], the “collision cross section (N2)” value was determined as 128.1 Å² ([M+H]+) and 128.3 Å² ([M-H]-).

`O=P(O)(O)OC[C@H]1OC(O)[C@H](O)[C@@H]1O` (stereo partly drawn) [D-RIBOSE 5-PHOSPHATE]: the “collision cross section (N2)” value is, setting by setting: ([M+Na]+) 150.5 Å²; ([M-H]-) 139.4 Å².

Consider `C[C@H](CCC(=O)O)[C@H]1CC[C@H]2[C@@H]3CC[C@@H]4C[C@H](O)CC[C@]4(C)[C@H]3C[C@H](O)[C@]12C` [DEOXYCHOLATE], for which the “collision cross section (N2)” value ([M-H]-) is 202.2 Å² and 202.3 Å².

As to `Nc1ccn([C@H]2C[C@H](O)[C@@H](CO)O2)c(=O)n1` [DEOXYCYTIDINE], the “collision cross section (N2)” value is, setting by setting: ([M+K]+) 158.5 Å²; ([M+Na]+) 155.2 Å²; ([M-H]-) 148.7 Å².

On to `Nc1nc(=O)c2ncn([C@H]3C[C@H](O)[C@@H](COP(=O)(O)OP(=O)(O)OP(=O)(O)O)O3)c2[nH]1` [DGTP], for which the “collision cross section (N2)” value ([M+Na-2H]-) is recorded as 182.7 Å² and the “collision cross section (N2)” value ([M-H]-) was found to be 191.4 Å².

In the case of `CCOC(=O)Cc1c[nH]c2ccccc12` [ETHYL 3-INDOLEACETATE], the “collision cross section (N2)” value by setting is: ([M+H]+) 145.2 Å²; ([M+Na]+) 153.6 Å²; ([M-H]-) 145.6 Å².

As to `Cc1cc2nc3c(=O)[nH]c(=O)nc-3n(C[C@H](O)[C@H](O)[C@H](O)COP(=O)(O)OP(=O)(O)OC[C@H]3O[C@@H](n4cnc5c(N)ncnc54)[C@H](O)[C@@H]3O)c2cc1C` [FAD], the “collision cross section (N2)” value was 249 Å² ([M+H]+), 256.2 Å² ([M+Na-2H]-), 250.3 Å² ([M+Na]+) and 238.7 Å² ([M-H]-).

Turning to `COc1cc(/C=C/C(=O)O)ccc1O` [FERULATE], the “collision cross section (N2)” value ([M-H]-) amounted to 139.8 Å².

As to `OCC1(O)OC[C@@H](O)[C@@H](O)[C@@H]1O` (stereo partly drawn) [FRUCTOSE], under “[M+Na]+”, the “collision cross section (N2)” value stood at 141.5 Å².

As to `O=P(O)(O)O[C@H]1O[C@H](CO)[C@H](O)[C@H](O)[C@H]1O` [GALACTOSE 1-PHOSPHATE], the “collision cross section (N2)” value by setting is: ([M+K]+) 158.5 Å²; ([M+Na]+) 157.7 Å²; ([M-H]-) 148.2 Å².

For the molecule `OC[C@H]1OC(O)[C@H](O)[C@@H](O)[C@H]1O` (stereo partly drawn) [GALACTOSE], the “collision cross section (N2)” value ([M+Na]+) is listed as 141.9 Å².

Consider `O=C(O)[C@H]1O[C@H](O)[C@H](O)[C@@H](O)[C@H]1O` [GALACTURONATE], for which the “collision cross section (N2)” value was determined as 145.3 Å² ([M+Na]+) and 131.3 Å² ([M-H]-).

As for `CCCCC/C=C\C/C=C\C/C=C\CCCCC(=O)[O-]` [GAMMA-LINOLENATE], under “[M-H]-”, the “collision cross section (N2)” value was 174.8 Å².

For `CC(C)=CCC/C(C)=C/COP(=O)(O)OP(=O)(O)O` [GERANYL-PP], the “collision cross section (N2)” value runs as follows: ([M+Na-2H]-) 173.8 Å²; ([M-H]-) 167.2 Å².

Take `N[C@@H](C(=O)O)[C@@H](O)[C@H](O)[C@H](O)CO` [GLUCOSAMINATE]: the “collision cross section (N2)” value runs as follows: ([M+H]+) 141.8 Å²; ([M+Na]+) 146.5 Å²; ([M-H]-) 135.7 Å².

As to `N[C@@H]1[C@@H](O)[C@H](O)[C@@H](COP(=O)(O)O)O[C@@H]1O` [GLUCOSAMINE 6-PHOSPHATE], the “collision cross section (N2)” value ([M-H]-) turned out to be 148.1 Å².

Take `O=C(O)[C@H]1OC(O)[C@H](O)[C@@H](O)[C@@H]1O` (stereo partly drawn) [GLUCURONATE]: the “collision cross section (N2)” value is, setting by setting: ([M+Na]+) 150.2 Å²; ([M-H]-) 131.7 Å².

Turning to `O=C(O)CCCC(=O)O` [GLUTARATE], the “collision cross section (N2)” value ([M+Na-2H]-) was 129 Å² and 129.1 Å²; the “collision cross section (N2)” value ([M-H]-) was 121.3 Å² and 121.4 Å².

`O=C(O)[C@H](O)CO` [GLYCERATE]: where the note is “[M-H]-”, the “collision cross section (N2)” value was determined as 112.6 Å².

On to `CCCCCCCCCCCCCC(=O)OCC(COC(=O)CCCCCCCCCCCCC)OC(=O)CCCCCCCCCCCCC` [GLYCERYL TRIMYRISTATE], for which the “collision cross section (N2)” value ([M+Na]+) is listed as 291.4 Å².

For `Nc1nc(=O)c2[nH]cnc2[nH]1` [GUANINE], the “collision cross section (N2)” value is recorded as 136 Å² ([M+K]+) and 137.8 Å² ([M+Na]+).

With `Nc1nc(=O)c2ncn([C@@H]3O[C@H](COP(=O)(O)O)[C@@H](O)[C@H]3O)c2[nH]1` [GUANOSINE MONOPHOSPHATE], the “collision cross section (N2)” value was 179.5 Å² ([M+H]+), 172.1 Å² ([M+Na-2H]-), 174.3 Å² ([M+Na]+) and 169.4 Å² ([M-H]-).

`CCCCCCCCCCCCCCCCC(=O)[O-]` [HEPTADECANOATE]: the “collision cross section (N2)” value ([M-H]-) is on record as 172.9 Å².

For the molecule `O=C(O)Cc1cc(O)ccc1O` [HOMOGENTISATE], the “collision cross section (N2)” value ([M-H]-) stood at 132.4 Å².

As for `NCCS(=O)O` [HYPOTAURINE], the “collision cross section (N2)” value is given as 125.4 Å² ([M+H]+) and 132.6 Å² ([M-H]-).

Regarding `NC(=O)Cc1c[nH]c2ccccc12` [INDOLE-3-ACETAMIDE], the “collision cross section (N2)” value by setting is: ([M+H]+) 137 Å²; ([M+Na]+) 143.4 Å²; ([M-H]-) 135.5 Å².

On to `OCCc1c[nH]c2ccccc12` [INDOLE-3-ETHANOL], for which the “collision cross section (N2)” value ([M+H]+) amounted to 133.6 Å² and the “collision cross section (N2)” value ([M-H]-) worked out at 132.6 Å².

For `COC(=O)Cc1c[nH]c2ccccc12` [INDOLE-3-METHYL ACETATE], the “collision cross section (N2)” value is recorded as 138.7 Å² ([M+H]+), 147.2 Å² ([M+Na]+) and 141.1 Å² ([M-H]-).

Turning to `O=C(O)C(=O)Cc1c[nH]c2ccccc12` [INDOLE-3-PYRUVATE], the “collision cross section (N2)” value ([M-H]-) is listed as 137.6 Å².

With `O=CCc1c[nH]c2ccccc12` [INDOLEACETALDEHYDE], the “collision cross section (N2)” value is, setting by setting: ([M+H]+) 132.3 Å²; ([M-H]-) 130.7 Å².

As for `CC[C@H](C)[C@H](N)C(=O)O` [ISOLEUCINE], the “collision cross section (N2)” value is 133 Å² ([M+H]+) and 129.3 Å² ([M-H]-).

For the molecule `O=C1O[C@H]([C@@H](O)CO)[C@H](O)[C@@H]1O` [L-GULONOLACTONE], the “collision cross section (N2)” value is given as 133.5 Å² ([M+H2O-H]-), 140.8 Å² ([M+Na]+) and 129.6 Å² ([M-H]-).

With `NC(=O)[C@@H](N)Cc1c[nH]c2ccccc12` [L-TRYPTOPHANAMIDE], the “collision cross section (N2)” value runs as follows: ([M+H]+) 150.5 Å²; ([M+Na]+) 147.7 Å²; ([M-H]-) 143.3 Å².

Consider `CCCCCCCCCCCC(=O)O[C@H](CC(=O)[O-])C[N+](C)(C)C` [LAUROYLCARNITINE], for which the “collision cross section (N2)” value by setting is: ([M+H]+) 199 Å²; ([M+Na]+) 209.4 Å².

For the molecule `Cc1cc2nc3[nH]c(=O)[nH]c(=O)c3nc2cc1C` [LUMICHROME], the “collision cross section (N2)” value ([M+H20-H]-) is listed as 160.2 Å², the “collision cross section (N2)” value ([M+H]+) is 153.1 Å², the “collision cross section (N2)” value ([M+Na]+) amounted to 167.7 Å² and the “collision cross section (N2)” value ([M-H]-) is 155.1 Å².

Take `O=P(O)(O)OC[C@H]1OC(O)[C@@H](O)[C@@H](O)[C@@H]1O` (stereo partly drawn) [MANNOSE 6-PHOSPHATE]: the “collision cross section (N2)” value is given as 156.7 Å² ([M+Na-2H]-), 156.1 Å² ([M+Na]+) and 146.2 Å² ([M-H]-).

`CS(=N)(=O)CCC(N)C(=O)O` (stereo not drawn) [METHIONINE SULFOXIMINE]: the “collision cross section (N2)” value is recorded as 136.9 Å² ([M+H]+), 138.1 Å² ([M+Na]+) and 136.2 Å² ([M-H]-).

Regarding `CSCC[C@H](N)C(=O)O` [METHIONINE], the “collision cross section (N2)” value ([M+H]+) came to 133.1 Å² and the “collision cross section (N2)” value ([M-H]-) amounted to 132 Å².

As to `COC(=O)CCCN` [METHYL 4-AMINOBUTYRATE], the “collision cross section (N2)” value ([M+H]+) amounted to 124.6 Å².

Consider `CO[C@@H]1O[C@H](CO)[C@H](O)[C@H](O)[C@H]1O` [METHYL GALACTOSIDE], for which the “collision cross section (N2)” value ([M+Na]+) was 145.4 Å².

With `CC(C)=CCNc1ncnc2nc[nH]c12` [N6-(DELTA2-ISOPENTENYL)-ADENINE], the “collision cross section (N2)” value ([M+H]+) stood at 145.5 Å² and the “collision cross section (N2)” value ([M-H]-) is on record as 150.5 Å².

Turning to `CN(C)C(N)=NCCC[C@H](N)C(=O)O` [N,N-DIMETHYLARGININE], the “collision cross section (N2)” value came out at 143.9 Å² ([M+H]+) and 157.2 Å² ([M+Na]+).

On to `CC(=O)N[C@@H](C)C(=O)O` [N-ACETYLALANINE], for which, where the note is “[M+Na]+”, the “collision cross section (N2)” value worked out at 134.7 Å².

Take `CC(=O)N[C@@H]1[C@@H](O)[C@@H](O)[C@@H](CO)O[C@@H]1O` [N-ACETYLGALACTOSAMINE]: the “collision cross section (N2)” value is reported as 151.4 Å² ([M+K]+) and 150.3 Å² ([M+Na]+).

For the molecule `CC(=O)N[C@@H]1[C@@H](O)[C@H](O)[C@@H](CO)O[C@H]1O` [N-ACETYLGLUCOSAMINE], the “collision cross section (N2)” value ([M+Na]+) is 150.7 Å² and 157.8 Å²; the “collision cross section (N2)” value ([M-H]-) is on record as 152.5 Å².

In the case of `CC(=O)N[C@@H]1C(O)O[C@H](CO)[C@@H](O)[C@@H]1O` (stereo partly drawn) [N-ACETYLMANNOSAMINE], for the setting “[M+Na]+”, the “collision cross section (N2)” value is 150.2 Å².

`CC(=O)NCCCCN` [N-ACETYLPUTRESCINE]: the “collision cross section (N2)” value came out at 128.6 Å² ([M+H]+) and 134.5 Å² ([M+Na]+).

`CC(=O)N[C@@H](CO)C(=O)O` [N-ACETYLSERINE]: the “collision cross section (N2)” value amounted to 133.4 Å² ([M+Na]+) and 127.2 Å² ([M-H]-).
